# According to patent publication US12428406B2 (PMV Pharmaceuticals, Inc., priority 2019, dated 2025):
# Target: T1, p53 Y220C (Homo sapiens, UniProt P04637, Y220C)
# T1 construct: The recombinant protein was a truncation mutant containing only amino acids 94-312 of p53; made in house; host or cells: E. coli
# Assay: In vitro DNA binding activity assay (HTRF / TR-FRET): stabilization of p53 Y220C and increase of its DNA binding activity
# Type: biochemical
# Conditions: recombinant His-tagged p53 Y220C DNA binding domain (aa 94-312), biotin-labeled consensus DNA, incubated at 27° C. or 29° C. for 60 min
# Outline: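 His-tagged p53 Y220C, E. coli-expressed, binding biotin-labeled consensus DNA measured by HTRF (anti-His-APC, streptavidin-europium). Compounds from 4.5 mM DMSO stocks, 3-fold serial dilutions; incubations at room temperature 15 min, then 20 min. SC150 = concentration raising DNA binding by 50%.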
# T1 sequence (P04637 94-312, change not shown): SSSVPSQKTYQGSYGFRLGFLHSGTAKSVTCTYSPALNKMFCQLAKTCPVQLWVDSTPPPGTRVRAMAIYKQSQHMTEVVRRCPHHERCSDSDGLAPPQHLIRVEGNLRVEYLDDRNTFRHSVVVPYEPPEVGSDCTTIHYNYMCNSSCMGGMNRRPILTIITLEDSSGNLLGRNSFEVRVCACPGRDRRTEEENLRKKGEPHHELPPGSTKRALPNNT
row,SMILES,SC150 (concentration of the compound required to increase the DNA binding activity by 50%)
1,"CNC(=O)c1ccc(NCC#Cc2cc3c(N[C@H]4CC[C@@H](N5CC6CC(C5)O6)CC4)cccc3n2CC(F)(F)F)c(OC)c1 [Compound 403A, 3-methoxy-N-methyl-4-{[3-(4-{[(1S,4S)-4-{6-oxa-3-azabicyclo[3.1.1]heptan-3-yl}cyclohexyl]amino}-1-(2,2,2-trifluoroethyl)-1H-indol-2-yl)prop-2-yn-1-yl]amino}benzamide]",++ (++ = 0.05 μM ≤ SC150 < 0.1 μM)
2,"CN(C)[C@H]1CC[C@@H](Nc2cccc3c2cc(C#CCNc2ccc(S(C)(=O)=O)cc2OCC#N)n3CC(F)(F)F)CC1 [Compound 82A, 2-(5-methanesulfonyl-2-{[3-(4-{[(1S,4S)-4-(dimethylamino)cyclohexyl]amino}-1-(2,2,2-trifluoro-ethyl)-1H-indol-2-yl)prop-2-yn-1-yl]amino}phenoxy)acetonitrile]",+ (+ = 0 μM ≤ SC150 < 0.05 μM)
3,"CS(=O)(=O)c1ccc(NCC#Cc2cc3c(N[C@H]4CC[C@H](N5CC6(COC6)C5)CC4)cccc3n2CC(F)(F)F)c(OCCF)c1 [Compound 210A, N-((1R,4R)-4-(2-oxa-6-azaspiro[3.3]heptan-6-yl)cyclohexyl)-2-(3-((2-(2-fluoroethoxy)-4-(methylsulfonyl)phenyl)amino)prop-1-yn-1-yl)-1-(2,2,2-trifluoroethyl)-1H-indol-4-amine]",+ (+ = 0 μM ≤ SC150 < 0.05 μM)
4,"COC(=O)COc1cc(S(C)(=O)=O)ccc1NCC#Cc1cc2c(N[C@H]3CC[C@H](N4CC5(CCOCC5)C4)CC3)cccc2n1CC(F)(F)F [Compound 309A, methyl 2-(2-((3-(4-((4-(7-oxa-2-azaspiro[3.5]nonan-2-yl)cyclohexyl)amino)-1-(2,2,2-trifluoroethyl)-1H-indol-2-yl)prop-2-yn-1-yl)amino)-5-(methylsulfonyl)phenoxy)acetate]",+ (+ = 0 μM ≤ SC150 < 0.05 μM)
5,"COc1cc(S(=O)(=O)N(C)C)ccc1NCC#Cc1cc2c(N[C@H]3CC[C@H](N(C)C)CC3)cccc2n1CC(F)(F)F [Compound 127A, 3-methoxy-N,N-dimethyl-4-{[3-(4-{[(1R,4R)-4-(dimethylamino)cyclohexyl]amino}-1-(2,2,2-trifluoroethyl)-1H-indol-2-yl)prop-2-yn-1-yl]amino}benzene-1-sulfonamide]",+ (+ = 0 μM ≤ SC150 < 0.05 μM)
6,"COc1cc(S(C)(=O)=O)ccc1NCC#Cc1cc2c(N[C@@H]3CCC[C@H](n4nn[nH]c4=O)C3)cccc2n1CC(F)(F)F [Compound 448A, 1-[(1S,3R)-3-[(2-{3-[(4-methanesulfonyl-2-methoxyphenyl)amino]prop-1-yn-1-yl}-1-(2,2,2-trifluoroethyl)-1H-indol-4-yl)amino]cyclo-hexyl]-4,5-dihydro-1H-1,2,3,4-tetrazol-5-one]",++ (++ = 0.05 μM ≤ SC150 < 0.1 μM)
7,"COC[C@@H](CN1CCC(Nc2cccc3c2cc(C#CCNc2ccc(S(C)(=O)=O)cc2OC)n3CC(F)(F)F)CC1)OC(=O)C(C)C [Compound 635A, (2R)-1-{4-[(2-{3-[(4-methanesulfonyl-2-methoxyphenyl)amino]prop-1-yn-1-yl}-1-(2,2,2-trifluoroethyl)-1H-indol-4-yl)amino]piperidin-1-yl}-3-methoxypropan-2-yl 2-methylpropanoate]",+ (+ = 0 μM ≤ SC150 < 0.05 μM)
8,"COCC(CN1CCC(Nc2cccc3c2cc(C#CCNc2ccc(S(N)(=O)=O)cc2OC)n3CC(F)(F)F)CC1)OC(=O)C(C)C (stereo not shown) [Compound 604A, 1-methoxy-3-{4-[(2-{3-[(2-methoxy-4-sulfamoylphenyl)amino]prop-1-yn-1-yl}-1-(2,2,2-trifluoroethyl)-1H-indol-4-yl)amino]piperidin-1-yl}propan-2-yl 2-methylpropanoate]",+ (+ = 0 μM ≤ SC150 < 0.05 μM)
9,"COc1cc(S(=O)(=O)N(CCO)CCO)ccc1NCC#Cc1cc2c(NC3CCOCC3)cccc2n1CC(F)(F)F [Compound 1007A, N,N-bis(2-hydroxyethyl)-3-methoxy-4-[(3-{4-[(oxan-4-yl)amino]-1-(2,2,2-trifluoroethyl)-1H-indol-2-yl}prop-2-yn-1-yl)amino]benzene-1-sulfonamide]",+ (+ = 0 μM ≤ SC150 < 0.05 μM)

# Further lines, results first:
row,SC150 (concentration of the compound required to increase the DNA binding activity by 50%),SMILES
1,+ (+ = 0 μM ≤ SC150 < 0.05 μM),"CC(C)N1CCC(Nc2cccc3c2cc(C#CCNc2ccc(S(C)(=O)=O)cc2OCF)n3CC(F)(F)F)CC1 [Compound 541A, 2-(3-{[2-(fluoromethoxy)-4-methanesulfonylphenyl]amino}prop-1-yn-1-yl)-N-[1-(propan-2-yl)piperidin-4-yl]-1-(2,2,2-trifluoroethyl)-1H-indol-4-amine]"
2,+ (+ = 0 μM ≤ SC150 < 0.05 μM),COCCNC(=O)c1ccc(NCC#Cc2cc3c(NC4CCN(C)CC4)cccc3n2CC(F)(F)F)c(OC)c1 [Compound 497A]
3,+ (+ = 0 μM ≤ SC150 < 0.05 μM),"COc1cc(S(C)(=O)=O)ccc1NCC#Cc1cc2c(N[C@H]3CCC[C@@H](O)C3)cccc2n1CC(F)(F)F (relative stereo) [Compound 30A, rel-(1R,3S)-3-[(2-{3-[(4-methanesulfonyl-2-methoxyphenyl)amino]prop-1-yn-1-yl}-1-(2,2,2-trifluoroethyl)-1H-indol-4-yl)amino] cyclohexan-1-ol]"
4,+ (+ = 0 μM ≤ SC150 < 0.05 μM),"CCS(=O)(=O)c1ccc(NCC#Cc2cc3c(N[C@H]4CC[C@@H](N(C)C)CC4)cccc3n2CC(F)(F)F)c(OC)c1 [Compound 120A, (1S,4S)—N^4-[2-(3-{[4-(ethanesulfonyl)-2-methoxyphenyl]amino}prop-1-yn-1-yl)-1-(2,2,2-trifluoroethyl)-1H-indol-4-yl]-N^1,N^1-dimethylcyclohexane-1,4-diamine]"
5,+ (+ = 0 μM ≤ SC150 < 0.05 μM),"CNC(=O)c1ccc(NCC#Cc2cc3c(N[C@H]4CC[C@@H](N(C)C)CC4)cccc3n2CC(F)(F)F)c(OCCF)c1 [Compound 105A, 3-(2-fluoroethoxy)-N-methyl-4-{[3-(4-{[(1S,4S)-4-(dimethyl-amino)cyclohexyl]amino}-1-(2,2,2-trifluoro-ethyl)-1H-indol-2-yl)prop-2-yn-1-yl]amino}benzamide]"
6,+ (+ = 0 μM ≤ SC150 < 0.05 μM),"CCOC(=O)c1ccc(NCC#Cc2cc3c(N[C@H]4CCN(C(C)C)C[C@H]4F)cccc3n2CC(F)(F)F)c(OC)c1 (racemic) [Compound 797A, ethyl 4-((3-(4-(((3R,4S)-3-fluoro-1-isopropylpiperidin-4-yl)amino)-1-(2,2,2-trifluoroethyl)-1H-indol-2-yl)prop-2-yn-1-yl)amino)-3-methoxybenzoate]"
7,+ (+ = 0 μM ≤ SC150 < 0.05 μM),"CNC(=O)c1ccc(NCC#Cc2cc3c(NC4CCN(CC(O)COC)CC4)cccc3n2CC(F)(F)F)c(OCCF)c1 (stereo not shown) [Compound 652A, 3-(2-fluoroethoxy)-4-{[3-(4-{[1-(2-hydroxy-3-methoxypropyl)piperidin-4-yl]amino}-1-(2,2,2-trifluoroethyl)-1H-indol-2-yl)prop-2-yn-1-yl]amino}-N-methylbenzamide]"
8,+ (+ = 0 μM ≤ SC150 < 0.05 μM),COc1cc(S(N)(=O)=O)ccc1NCC#Cc1cc2c(NC3CCN(C(=O)C(C)O)CC3)cccc2n1CC(F)(F)F (stereo not shown) [Compound 745A]
9,+ (+ = 0 μM ≤ SC150 < 0.05 μM),"COc1cc(S(C)(=O)=O)ccc1NCC#Cc1cc2c(NC3CCN(C4CC4)CC3)cccc2n1CC(F)(F)F [Compound 720A, N-(1-cyclopropylpiperidin-4-yl)-2-{3-[(4-methanesulfonyl-2-methoxyphenyl)amino]prop-1-yn-1-yl}-1-(2,2,2-trifluoroethyl)-1H-indol-4-amine]"
10,+ (+ = 0 μM ≤ SC150 < 0.05 μM),"CCNC(=O)c1ccc(NCC#Cc2cc3c(N[C@@H]4CCN(C)C[C@@H]4F)cccc3n2CC(F)(F)F)c(OC)c1 [Compound 940A, N-ethyl-4-{[3-(4-{[(3S,4R)-3-fluoro-1-methylpiperidin-4-yl]amino}-1-(2,2,2-trifluoroethyl)-1H-indol-2-yl)prop-2-yn-1-yl]amino}-3-methoxybenzamide]"
11,+ (+ = 0 μM ≤ SC150 < 0.05 μM),"COc1cc(C(=O)N[C@@H](CCC(N)=O)C(=O)O)ccc1NCC#Cc1cc2c(N[C@@H]3CCN(C)C[C@@H]3F)cccc2n1CC(F)(F)F [Compound 930A, (2S)-4-carbamoyl-2-[(4-{[3-(4-{[(3S,4R)-3-fluoro-1-methylpiperidin-4-yl]amino}-1-(2,2,2-trifluoroethyl)-1H-indol-2-yl)prop-2-yn-1-yl]amino}-3-methoxyphenyl)formamido]butanoic acid]"
12,+ (+ = 0 μM ≤ SC150 < 0.05 μM),"COc1cc(S(N)(=O)=O)ccc1NCC#Cc1cc2c(N[C@@H]3CCN(C[C@H](COC(C)=O)OC(C)=O)C[C@@H]3F)cccc2n1CC(F)(F)F (racemic) [Compound 799A, (2R)-1-(acetyloxy)-3-[(3RS,4SR)-3-fluoro-4-[(2-{3-[(2-methoxy-4-sulfamoylphenyl)amino]prop-1-yn-1-yl}-1-(2,2,2-trifluoroethyl)-1H-indol-4-yl)amino]piperidin-1-yl]propan-2-yl acetate]"
13,+++ (+++ = 0.1 μM ≤ SC150 < 0.2 μM),"COc1ccc(S(C)(=O)=O)cc1NCC#Cc1cc2c(NC3CCN(C)CC3)cccc2n1CC(F)(F)F [Compound 495A, 2-{3-[(5-methanesulfonyl-2-methoxyphenyl)amino]prop-1-yn-1-yl}-N-(1-methylpiperidin-4-yl)-1-(2,2,2-trifluoroethyl)-1H-indol-4-amine]"
